Test results from the supplement of paper PMC10307832.

Legend:
Experiment in all cases: relative viability (nuclei count vs DMSO), 5 days (fraction); higher = more cells survive
BI-D1870 + Crizotinib = compound: CC(C)CCN1c2nc(Nc3cc(F)c(O)c(F)c3)ncc2N(C)C(=O)C1C [BI-D1870] + C[C@@H](Oc1cc(-c2cnn(C3CCNCC3)c2)cnc1N)c1c(Cl)ccc(F)c1Cl [Crizotinib] (partner 1 µM)
Procedure, shortened: (§1)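 Relative viability divides the nuclei count in treated wells by that in vehicle wells. Lung cancer cell lines were seeded in 1536-well plates, dosed by pin tool the next day, and fixed and stained after 5 days in one step with final 0.05% Triton X-100, 1% formaldehyde and 1 ug/ml Hoechst. Dosing was a single drug or a fixed anchor-drug dose plus five library-drug doses (not always all listed) in √10 steps, and values are medians of duplicate plates imaged at 4×.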

BI-D1870 + Palbociclib = compound: CC(C)CCN1c2nc(Nc3cc(F)c(O)c(F)c3)ncc2N(C)C(=O)C1C [BI-D1870] + CC(=O)c1c(C)c2cnc(Nc3ccc(N4CCNCC4)cn3)nc2n(C2CCCC2)c1=O [Palbociclib] (partner 0.5 µM)
Procedure, shortened: as §1

Zebularine + Vorinostat = compound: O=c1ncccn1[C@@H]1O[C@H](CO)[C@@H](O)[C@H]1O [Zebularine] + O=C(CCCCCCC(=O)Nc1ccccc1)NO [Vorinostat] (partner 1 µM)
Procedure, shortened: as §1

Zebularine + Bortezomib = compound: O=c1ncccn1[C@@H]1O[C@H](CO)[C@@H](O)[C@H]1O [Zebularine] + CC(C)C[C@H](NC(=O)[C@H](Cc1ccccc1)NC(=O)c1cnccn1)B(O)O [Bortezomib] (partner 0.002 µM)
Procedure, shortened: as §1

Cell Line | relative viability (BI-D1870 + Crizotinib; first compound 0.04 µM) | relative viability (BI-D1870 + Crizotinib; first compound 0.1265 µM) | relative viability (BI-D1870 + Crizotinib; first compound 0.4 µM) | relative viability (BI-D1870 + Crizotinib; first compound 1.265 µM) | relative viability (BI-D1870 + Crizotinib; first compound 4 µM) | relative viability (BI-D1870 + Palbociclib; first compound 0.04 µM) | relative viability (BI-D1870 + Palbociclib; first compound 0.1265 µM) | relative viability (BI-D1870 + Palbociclib; first compound 0.4 µM) | relative viability (BI-D1870 + Palbociclib; first compound 1.265 µM) | relative viability (BI-D1870 + Palbociclib; first compound 4 µM) | relative viability (Zebularine + Vorinostat; first compound 1 µM) | relative viability (Zebularine + Vorinostat; first compound 3.162 µM) | relative viability (Zebularine + Vorinostat; first compound 10 µM) | relative viability (Zebularine + Vorinostat; first compound 31.62 µM) | relative viability (Zebularine + Vorinostat; first compound 100 µM) | relative viability (Zebularine + Bortezomib; first compound 1 µM) | relative viability (Zebularine + Bortezomib; first compound 3.162 µM) | relative viability (Zebularine + Bortezomib; first compound 10 µM) | relative viability (Zebularine + Bortezomib; first compound 31.62 µM) | relative viability (Zebularine + Bortezomib; first compound 100 µM)
LCLC-103H | 1.18 | 0.889 | 0.868 | 1.1 | 1.03 | 0.475 | 0.471 | 0.439 | 0.409 | 0.379 | 0.812 | 0.697 | 0.706 | 0.77 | 0.75 | 1.19 | 1.1 | 0.886 | 1.19 | 1.01
LOU-NH91 | 0.8 | 0.702 | 0.735 | 0.75 | 0.647 | 0.497 | 0.57 | 0.499 | 0.529 | 0.509 | 0.981 | 0.899 | 0.81 | 0.9 | 0.557 | 0.485 | 0.464 | 0.51 | 0.441 | 0.492
LU99A | 0.692 | 0.539 | 0.552 | 0.547 | 0.508 | 0.431 | 0.363 | 0.387 | 0.37 | 0.331 | 0.536 | 0.513 | 0.414 | 0.379 | 0.174 | 1.39 | 1.08 | 0.638 | 0.421 | 0.199
LXF-289 | 0.905 | 0.796 | 0.797 | 0.793 | 0.619 | 0.577 | 0.583 | 0.598 | 0.641 | 0.558 | 0.853 | 0.809 | 0.635 | 0.667 | 0.254 | 1.04 | 0.993 | 0.94 | 0.748 | 0.301
NCI-H23 | 0.527 | 0.424 | 0.509 | 0.667 | 0.559 | 0.568 | 0.47 | 0.546 | 0.525 | 0.323 | 0.661 | 0.587 |  | 0.542 | 0.509 | 1.15 | 1.06 |  | 0.918 | 0.783
NCI-H322M | 0.924 | 0.822 | 0.795 | 1.05 | 0.651 | 0.492 | 0.475 | 0.461 | 0.483 | 0.501 | 0.946 | 0.873 | 1.21 | 0.945 | 0.537 | 1.19 | 1.29 | 1.06 | 1.17 | 0.824
NCI-H441 | 1.01 | 0.696 | 0.925 | 0.738 | 0.448 | 0.266 | 0.21 | 0.173 | 0.225 | 0.229 | 1.03 | 0.908 | 0.404 | 0.317 | 0.362 | 0.355 | 0.278 | 0.352 | 0.235 | 0.245
NCI-H460 | 1.2 | 0.76 | 0.84 | 0.926 | 0.14 | 0.226 | 0.154 | 0.135 | 0.184 | 0.121 | 0.652 | 0.702 | 0.297 | 0.298 | 0.166 | 1.34 | 1.07 | 0.241 | 0.278 | 0.126
NCI-H520 | 1.05 | 0.687 | 0.766 | 0.824 | 0.476 | 0.253 | 0.218 | 0.217 | 0.224 | 0.13 | 0.752 | 0.685 | 0.462 | 0.45 | 0.242 | 0.831 | 0.449 | 0.337 | 0.231 | 0.224
NCI-H647 | 1.05 | 1.03 | 1.12 | 1.2 | 0.799 | 0.488 | 0.342 | 0.463 | 0.371 | 0.215 | 0.481 | 0.586 | 0.165 | 0.165 | 0.12 | 1.27 | 0.749 | 0.181 | 0.175 | 0.204
NCI-H650 | 0.672 | 0.667 | 0.695 | 0.662 | 0.405 | 0.384 | 0.304 | 0.338 | 0.353 | 0.233 | 0.398 | 0.376 | 0.343 | 0.297 | 0.225 | 0.956 | 0.654 | 0.557 | 0.525 | 0.357
NCI-H661 | 1.24 | 0.963 | 0.973 | 1.05 | 0.902 | 0.459 | 0.392 | 0.419 | 0.384 | 0.358 | 0.9 | 0.829 | 0.673 | 0.936 | 0.824 | 0.729 | 0.824 | 0.709 | 0.716 | 0.785
NCI-H727 | 0.986 | 0.672 | 0.938 | 0.922 | 0.853 | 0.594 | 0.579 | 0.648 | 0.64 | 0.66 | 1.18 | 1.14 | 0.971 | 1.26 | 1.08 | 0.901 | 0.816 | 0.737 | 0.943 | 0.762
NCI-H838 | 0.902 | 0.715 | 0.926 | 0.949 | 0.932 | 0.243 | 0.236 | 0.232 | 0.262 | 0.209 | 0.712 | 0.723 | 0.654 | 0.859 | 0.402 | 0.994 | 0.727 | 0.598 | 0.801 | 0.298
NCI-H1355 | 1.12 | 0.985 | 1.1 | 1.08 | 1.11 | 0.384 | 0.368 | 0.403 | 0.446 | 0.392 | 0.692 | 0.585 | 0.479 | 0.544 | 0.372 | 1.3 | 1.2 | 0.844 | 0.493 | 0.335
NCI-H1437 | 1.04 | 0.811 | 0.873 | 0.794 | 0.677 | 0.304 | 0.336 | 0.309 | 0.272 | 0.212 | 1.02 | 0.899 | 0.727 | 0.911 | 0.55 | 0.595 | 0.474 |  | 0.566 | 0.258
NCI-H1650 | 0.984 | 0.905 | 0.936 | 0.777 | 0.801 | 0.372 | 0.316 | 0.338 | 0.321 | 0.335 | 0.645 | 0.57 | 0.506 | 0.748 | 0.373 | 0.226 | 0.191 |  | 0.2 | 0.199
NCI-H1651 | 0.91 | 0.821 | 0.821 | 0.939 | 0.872 | 0.473 | 0.503 | 0.494 | 0.555 | 0.536 | 0.637 | 0.537 | 0.501 | 0.523 | 0.46 | 0.979 | 0.935 | 0.582 | 0.947 | 0.609
NCI-H1666 | 0.932 | 0.813 | 1.1 | 1.04 | 0.803 | 0.665 | 0.591 | 0.661 | 0.63 | 0.619 | 1.01 | 1.02 | 0.752 | 1.09 | 0.939 | 0.884 | 0.805 | 0.745 | 0.879 | 0.612
NCI-H1734 | 0.806 | 0.618 | 0.593 | 0.664 | 0.645 | 0.334 | 0.302 | 0.337 | 0.345 | 0.309 | 0.983 | 0.717 | 0.425 | 0.401 | 0.253 | 0.988 | 0.86 | 0.463 | 0.379 | 0.346
NCI-H1755 | 0.977 | 0.838 | 0.876 | 0.829 | 0.762 | 0.432 | 0.413 | 0.438 | 0.481 | 0.435 | 0.809 | 0.892 | 0.614 | 1.11 | 0.648 | 1.03 | 0.952 | 0.739 | 1.08 | 0.415
NCI-H1915 | 0.932 | 0.835 | 0.962 | 0.935 | 0.881 | 0.577 | 0.504 | 0.469 | 0.451 | 0.376 | 0.538 | 0.53 | 0.412 | 0.607 | 0.585 | 1.11 | 0.913 | 0.433 | 1.09 | 0.97
NCI-H1975 | 1.05 | 0.988 | 1.01 | 1.03 | 0.484 | 0.785 | 0.521 | 0.552 | 0.623 | 0.456 | 0.731 | 0.728 | 0.465 | 0.556 | 0.321 | 0.403 | 0.338 | 0.288 | 0.267 | 0.233
NCI-H1993 | 0.891 | 0.842 | 0.801 | 0.916 | 0.73 | 0.642 | 0.583 | 0.717 | 0.691 | 0.573 | 0.73 | 0.763 | 0.754 | 0.741 | 0.559 | 1.26 | 1.1 |  | 1.14 | 0.778
NCI-H2009 | 1.06 | 0.996 | 0.962 | 0.609 | 0.457 | 0.22 | 0.169 | 0.229 | 0.179 | 0.148 | 0.728 | 0.679 | 0.625 | 0.63 | 0.241 | 1.04 | 0.928 | 0.876 | 0.609 | 0.339
NCI-H2023 | 0.724 | 0.525 | 0.579 | 0.612 | 0.497 | 0.424 | 0.279 | 0.284 | 0.3 | 0.207 | 0.946 | 0.561 | 0.509 | 0.518 | 0.216 | 1.08 | 0.932 | 0.749 | 0.646 | 0.273
NCI-H2085 | 0.861 | 0.561 | 0.819 | 0.724 | 0.772 | 0.453 | 0.475 | 0.474 | 0.456 | 0.355 | 0.804 | 0.835 | 0.662 | 0.755 | 0.465 | 1.12 | 0.971 | 0.828 | 1.06 | 0.683
